Reference: patent US9498476B2, “Crystalline form of 6-[(4S)-2-methyl-4-(2-naphthyl)-1,2,3,4-tetrahydroisoquinolin-7-yl]pyridazin-3-amine” (Bristol-Myers Squibb Company, priority 2008, dated 2016)

Tests used:
Type in all cases: physicochemical
[1] = pH-Solubility profile (aqueous solubility)
[2] = Distribution coefficient (Log Do/b); conditions: pH 6.5
[3] = Solubility profile (USP definition) in solvents

For CN1Cc2cc(-c3ccc(N)nn3)ccc2[C@H](c2ccc3ccccc3c2)C1 [Form N-1, 6-[(4S)-1,2,3,4-tetrahydro-2-methyl-4-(2-naphthalenyl)-7-isoquinolinyl]-3-pyridazinamine], the “Aqueous solubility (in words)” value [1] was “high aqueous solubility”, the “Distribution coefficient Log Do/b” value [2] was 3.10 and the “Solubility profile (USP definition)” value ([3]; acetone) was “slightly soluble: isopropanol, acetone, ethanol, methanol,”. For the same compound, the “Solubility profile (USP definition)” value ([3]; acetonitrile) was “very slightly soluble: acetonitrile, ethyl acetate,”, the “Solubility profile (USP definition)” value ([3]; dichloromethane) was “slightly soluble: isopropanol, acetone, ethanol, methanol,” and the “Solubility profile (USP definition)” value ([3]; ethanol) was “slightly soluble: isopropanol, acetone, ethanol, methanol,”. For the same compound, the “Solubility profile (USP definition)” value ([3]; ethyl acetate) was “very slightly soluble: acetonitrile, ethyl acetate,”, the “Solubility profile (USP definition)” value ([3]; isopropanol) was “slightly soluble: isopropanol, acetone, ethanol, methanol,” and the “Solubility profile (USP definition)” value ([3]; methanol) was “slightly soluble: isopropanol, acetone, ethanol, methanol,”. The “Solubility profile (USP definition)” value ([3]; n-butanol) was “very slightly soluble: acetonitrile, ethyl acetate,” and the “Solubility profile (USP definition)” value ([3]; propylene glycol) was “slightly soluble: isopropanol, acetone, ethanol, methanol,”.
